For test [1], the system named is FKB-1 (DNA, aptamer) CGAGCATAGGCAGAACTTACCACCAAGTGAGGGTGTACGGTGGCTTACGCTTGGTCGTAAGAGCGAGTCATTC
As to the kind of experiment: gel elution assay. Particulars: 20 mM NaCl, 0.5 mM MgCl2; for binding: 10 mM Tris-HCl pH 7.4, displacement from cDNA-bio, tested at 100 µM.

The test system of test [2] is FKB-S (DNA, aptamer) CTTACCACCAAGTGAGGGTGTACGGTGGCTTACGCTTGGTCGTAAG
As to the kind of experiment: AuNP aggregation colorimetric assay. The conditions noted are these: NaCl (20 µL of 400 mM added after compound), room temperature, indirect readout.

The test system of test [3] is FKB-2 (DNA, aptamer) CGAGCATAGGCAGAACTTACCACGAGGACGGGTCAGTGCGTTAGGTGCCCACAGTCGTAAGAGCGAGTCATTC
As to the kind of experiment: gel elution assay. Particulars: 20 mM NaCl, 0.5 mM MgCl2; for binding: 10 mM Tris-HCl pH 7.4, displacement from cDNA-bio.

The subject of test [4] is FKB-3 (DNA, aptamer) CGAGCATAGGCAGAACTTACCACACAGCGTACCTCGTAGCCATGCGCCGTTGGGTCGTAAGAGCGAGTCATTC
As to the kind of experiment: gel elution assay. The conditions noted are these: 20 mM NaCl, 0.5 mM MgCl2; for binding: 10 mM Tris-HCl pH 7.4, displacement from cDNA-bio.

Test [5] deals with FKB-S-5'FAM (DNA, aptamer) CTTACCACCAAGTGAGGGTGTACGGTGGCTTACGCTTGGTCGTAAG
As to the kind of experiment: microscale thermophoresis. The conditions noted are these: 20 mM NaCl, 0.5 mM MgCl2; 10 mM Tris-HCl pH 7.4, 5% DMSO, 0.05% Tween-20. (In general: In MST a laser heats a spot of the sample, and binding alters the fluorescence response.)

Test [6] relates to FKB-1-5'FAM (DNA, aptamer) CGAGCATAGGCAGAACTTACCACCAAGTGAGGGTGTACGGTGGCTTACGCTTGGTCGTAAGAGCGAGTCATTC
Kind of test: microscale thermophoresis. The conditions noted are these: 20 mM NaCl, 0.5 mM MgCl2; 10 mM Tris-HCl pH 7.4, 5% DMSO, 0.05% Tween-20.

Setting [7] is: 10 mM Tris-HCl pH 7.4, room temperature, displaced from cDNA-bio, apparent.

With `O=c1c(O)c(-c2cc(O)c(O)c(O)c2)oc2cc(O)cc(O)c12`, the binding result in test [1] and in test [2] was “no” throughout.

As for `COc1cc(O)c(C(=O)/C=C/c2ccc(O)cc2)c(OC)c1`, the binding entry is reported as “no” in test [1], “weak” in test [3], “weak” in test [4] and “weak” in test [5].

Take `O=C1c2cccc(O)c2C(=O)c2c(O)cc(CO)cc21`: the binding entry in test [1] was “no”.

On to `COc1ccc(/C=C/C(=O)c2c(O)cc(OC)cc2OC)cc1`, for which the binding result was “no” in test [1], “weak” in test [3], “weak” in test [4] and “weak” in test [5].

With `O=c1c(O)c(-c2ccc(O)c(O)c2)oc2cc(O)cc(O)c12`, the binding result in test [1] and in test [2] was “no” throughout.

Turning to `O=C(/C=C/c1ccc(O)cc1)c1ccc(O)cc1O`, the binding entry in test [1] was “no”.

With `COc1cc(O)c(C(=O)/C=C/c2ccccc2)c(OC)c1`, the KD in test [1] (setting [7]) was 2.87 µM; in test [3] (setting [7]), 9.97 µM; in test [4] (setting [7]), 40.5 µM; in test [6], 1.45 µM; in test [5], 0.28 µM. Besides, the binding entry in test [2] (FKB 0-5 μM) is on record as “yes”.
